We go through 1 compound from US20250375417A1, “OREXIN RECEPTOR 2 (OX2R) AGONIST FOR USE IN NARCOLEPSY TYPE 1 (NT1)” (TAKEDA PHARMACEUTICAL COMPANY LIMITED, priority 2024, published 2025).

SMILES strings stand for the structures.

In one assay the test system is participants with NT1. The experiment in a line: Efficacy (SOL-MWT, ESS, WCR), LTE study interim analysis, NT1 participants. It is filed as in vivo, human. As to conditions: all Compound A doses, up to 6 months (FIG. 31). As for the experimental part: An nPSG and MWT were conducted on Day 181 and 182, respectively. Cognitive testing were conducted at Week 26 (6 months). ESS and NSS-CT were collected monthly starting at Week 4 and then approximately every 3 months after Week 12. There were additional ESS measurements at Week 2 and in the first week after drug discontinuation. PGI-I and CGI-I were collected approximately every 3 months starting at Week 12. Other patient-reported outcome measures were administered approximately every 6 months up until Year 1.
Participants with NT1 also completed the Cataplexy e-diary daily over 2-week periods to capture the weekly cataplexy rate before the next visit in-clinic. The Cataplexy e-diary was completed at approximately 3-month intervals during Year 1 and at 6-month intervals during Year 2.
Participants completing either Example 1 or Example 2 with ≤3 months between parent study-end and LTE screening could enroll. Primary endpoint is the occurrence of treatment-emergent adverse events (TEAEs); secondary endpoints are change from baseline (parent study) in sleep onset latency on the Maintenance of Wakefulness Test (SOL-MWT), Epworth Sleepiness Scale (ESS) score, and weekly cataplexy rate (WCR). Participants with NT1 receive oral Compound A 0.5 mg twice 3 hours apart, 2 mg twice 3 hours apart, 2 mg then 5 mg 3 hours apart, or 7 mg once daily. […]

Another assay deals with participants with NT2. The experiment in a line: MWT sleep onset latency, Phase 2 NT2 trial (Example 2). It is filed as in vivo, human. As to conditions: not statistically significant (p>0.4). The procedure: In some aspects of the methods described herein, the subject experiences a higher mean sleep latency (also referred to as sleep onset latency or SOL) from the Maintenance of Wakefulness Test (MWT) after a treatment period compared to an untreated subject. The MWT is a validated, objective measure that evaluates a person's ability to remain awake under soporific conditions for a defined period of time. Because there is no biological measure of wakefulness, wakefulness is measured indirectly by the inability or delayed tendency to fall asleep. This tendency to fall asleep is measured via electroencephalography-derived sleep latency in the MWT. One MWT, that includes four 40-minute wake trials, is done on each day specified in the Schedule of Activities of the trial. Sleep latency in each wake trial is recorded. Participants are required to stay awake in between the 4 MWT wake trials.
During each MWT wake trial, participants are instructed to sit in a bed or reclining chair and remain awake for as long as possible in a dimly lit room. Wake trials are ended after 40 minutes if no sleep occurs. If no sleep has been observed according to these rules, then the latency is defined as 40 minutes.
Randomization was stratified by region. Starting on the morning of Day 1, the study drug was administered at approximately the same time each day for 8 weeks. […]

As to `CCS(=O)(=O)N[C@@H]1[C@H](Cc2cccc(-c3cc(F)cc(F)c3)c2F)N(C(=O)C(C)(C)O)CC1(F)F` [Compound A, N-{(2S,3R)-4,4-difluoro-1-(2-hydroxy-2-methylpropanoyl)-2-[(2,3′,5′-trifluoro[1,1′-biphenyl]-3-yl)methyl]pyrrolidin-3-yl}ethanesulfonamide], in the assay on participants with NT1, the “Efficacy on SOL-MWT, ESS and WCR over time” value is recorded as “maintenance of efficacy”. In addition, the “Estimated mean change from baseline to Week 8 in SOL-MWT versus placebo” value is -0.24 min in the assay on participants with NT2 (2 mg/2 mg) and 2.4 min in the assay with participants with NT2 (2 mg/5 mg).
